This is an account of results in patent publication US20040241114A1, “Hair Care and Nail Care Compositions Based on Ion-Pair Delivery System for Gender and Ethnic Selective Applications” (priority 2003, published 2004).

Common to all, as to format: physicochemical
The nature of one data set: pH of 1% water solution.
Data set [1] in a line: Stability of water solution.
The nature of the next data set: Solubility in water. The source says:
The ion-pair compositions thus formed are not just physical mixtures of the two compositions that are combined in an ion-pair mode to form such ion-pair compositions. Such ion-pair compositions are discreet chemical entities. For example, the combination of niacinamide with N-Acetyl-Cysteine results in the formation of ion-pair complex, Niacinamide N-Acetyl Cysteinate. […] Niacinamide N-Acetyl-Cysteinate, the ion-pair that is produced from the combination of the above two compositions is a new ingredient properties of which are very different from that of the above two compositions, which shall be described elsewhere.

Some results are limits rather than exact numbers.

For `CC(=O)N[C@@H](CS)C(=O)O` [N-Acetyl-Cysteine], the “pH of 1% water solution” value in “pH of 1% water solution” was 3.5. In data set [1], the “stability of water solution” value is “poor”. In addition, the solubility in water in “Solubility in water” is reported as > 20%.
As for `NC(=O)c1cccnc1` [niacinamide], the “pH of 1% water solution” value in “pH of 1% water solution” stood at 6.3. The “stability of water solution” value in data set [1] is reported as “good”. Further, in the data set “Solubility in water”, the solubility in water came to 50%.
